The source of these data is ChEMBL document CHEMBL3585282, “Discovery of Highly Isoform Selective Thiazolopiperidine Inhibitors of Phosphoinositide 3-Kinase γ” (J Med Chem, 2015).

≈ marks a conversion by molar mass, not a printed value.

Series [1] in a line: Stability in dog liver microsomes assessed as compound remaining at 5 uM in presence of NADPH after 30 mins by LC-MS/MS method. Conditions: read-out: Stability. In kind it is ADME, Canis lupus familiaris.
Series [2] is described as follows: Stability in rat liver microsomes assessed as compound remaining at 5 uM in presence of NADPH after 30 mins by LC-MS/MS method. In kind it is ADME. Conditions: read-out: Stability.
Series [3] is described as follows: Stability in human liver microsomes assessed as compound remaining at 5 uM in presence of NADPH after 30 mins by LC-MS/MS method. The series is classed as ADME. Conditions: read-out: Stability.
The nature of series [4]: Thermodynamic solubility in FaSSIF at pH 6.5 at 5 mg incubated for 48 hrs by HPLC method. In kind it is physicochemical. The settings on record: read-out: Therm_solubility.
Series [5] is described as follows: Thermodynamic solubility in water at 5 mg incubated for 48 hrs by HPLC method. Conditions: read-out: Therm_solubility. In kind it is physicochemical.

Consider `COc1cc(N2CCc3nc(NC(=O)NCCc4cn(CC(F)F)cn4)sc3C2)cnc1Cl`, for which the remaining at 0.5 h, 5 µM was found to be 84% in series [1], 100% in series [2] and 61% in series [3].

`COc1cncc(N2CCc3nc(NC(C)=O)sc3C2)c1`: the solubility thermodynamic at 48 h worked out at 9.4 µg/mL (≈ 30.9 µM) in series [4] and 12.1 µg/mL (≈ 39.8 µM) in series [5].
